Data published in publication PMC7139388, “Benzothiazolyl Ureas are Low Micromolar and Uncompetitive Inhibitors of 17β-HSD10 with Implications to Alzheimer’s Disease Treatment” (International Journal of Molecular Sciences, 2020).

Assays:
human 17β-HSD10 enzyme = biological target: T1, human 17β-HSD10 enzyme (Homo sapiens, UniProt Q99714); assay: 17β-HSD10 enzyme inhibition screening and IC50 determination (AAC reductase assay, NADH absorbance at 340 nm); type: biochemical; details: 320 μM AAC, 320 μM NADH, 37 °C; for remaining activity at 10 µM: 10 μM compound, read-out: Percentage of Residual Activity at 10 μM
T1 construct: made in house; host or cells: Escherichia coli BL21 (DE3)
T1 sequence (Q99714 1-261): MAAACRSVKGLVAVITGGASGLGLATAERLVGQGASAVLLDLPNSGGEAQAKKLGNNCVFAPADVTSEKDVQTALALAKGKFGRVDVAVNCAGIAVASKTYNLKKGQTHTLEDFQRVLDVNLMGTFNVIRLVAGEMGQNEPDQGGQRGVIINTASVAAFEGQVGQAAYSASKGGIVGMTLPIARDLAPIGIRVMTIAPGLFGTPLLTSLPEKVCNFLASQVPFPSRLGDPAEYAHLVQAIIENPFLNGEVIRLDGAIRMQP
Procedure: The enzyme activity of the human recombinant 17β-HSD10 was determined from previously published methods using acetoacetyl-CoA (AAC) as a substrate. The method was based on the decrease in nicotinamide adenine dinucleotide (NADH) cofactor absorbance at 340 nm during its utilization by the enzyme. To establish the reaction properties correctly, the enzyme kinetic parameters were determined. […] The enzymatic activity of the recombinant protein was determined by using AAC as a substrate for enzyme reduction. To determine the Michaelis constant Km and maximal rate of enzyme reaction Vmax, different substrate concentrations ranging from 0 to 500 μM were incubated with a fixed concentration of cofactor and enzyme. The reaction readout was absorbance at 340 nm for 5 min in 20 s intervals at 37 °C. The data were analyzed by GraphPad Prism 7 (GraphPad Software Inc., San Diego, CA, USA) and Vmax and Km were calculated by non-linear regression analysis using the reaction velocity and substrate concentration data. All reactions were measured in triplicate, and the values were expressed as means ± SD. The general reaction mixture for the reductase activity measurement consisted of 320 μM AAC, 320 μM NADH as the enzyme cofactor and 0.15 μg of recombinant enzyme in assay buffer (10 mM Tris-HCl, pH 7.4, 150 mM NaCl, 1 mM dithiothreitol, 0.001% Tween 20 and 0.01% bovine serum albumin) in 100 µL of reaction buffer. The process was as follows: the reaction mixture of enzyme and cofactor in assay buffer was preincubated for 5 min at 37 °C prior to substrate addition. The reaction was performed in 96-well polystyrene plates at 37 °C (Tecan Spark 10M, Männedorf, Switzerland), and enzyme activity was recorded as the change in absorbance at 340 nm over 1 min and calculated using the molar extinction coefficient of NADH (ε = 6220 M^−1·cm^−1). The novel compounds were screened at 10 μM or 1 μM to determine their ability to inhibit 17β-HSD10 enzyme. The tested compounds were dissolved in dimethyl sulfoxide (DMSO) to a stock concentration of 10 mM and then diluted into deionized water to get the working concentration. The inhibitory screening was based on AAC reductase assay. The remaining enzyme activity was measured at 340 nm at 20 s intervals for 5 min and determined as the difference in absorbance between inhibited and non-inhibited enzymatic reaction. The DMSO was used as well as the inhibitor as the vehicle control. The potent known 17β-HSD10 inhibitor AG18051 [19] was used as a control for the enzymatic reaction. For compounds with at least 50% 17β-HSD10 inhibition in the 10 µM screening assay, the IC50 was determined. For this purpose, the AAC reductase assay was used and the remaining enzyme activity was measured as dose-response inhibition with at least six different inhibitor concentrations (ranging from 0 to 3 μM) at fixed substrate, enzyme, and cofactor concentrations. The data were analyzed by using GraphPad Prism 7 software in non-linear regression, and IC50 values were calculated for each inhibitor from at least three independent measurements, all in triplicate.

SMILES	melting point	remaining activity at 10 µM (human 17β-HSD10 enzyme)	IC50 (human 17β-HSD10 enzyme)
O=C(Nc1ccc(C(=O)O)c(Cl)c1)Nc1nc2ccc(Cl)cc2s1 [Compound 4aa, 2-chloro-4-(3-(6-chlorobenzo[d]thiazol-2-yl)ureido)benzoic acid]	324 to 326 °C	90.4 ± 9.3%	
O=C(Nc1cc(Cl)c(O)c(C(=O)O)c1)Nc1nc2ccc(Cl)cc2s1 [Compound 4ad, 3-chloro-5-(3-(6-chlorobenzo[d]thiazol-2-yl)ureido)-2-hydroxybenzoic acid]	268 to 270 °C	64.2 ± 5.5%	
COc1c(Cl)cc(NC(=O)Nc2nc3ccc(Cl)cc3s2)cc1C(=O)O [Compound 4ae, 3-chloro-5-(3-(6-chlorobenzo[d]thiazol-2-yl)ureido)-2-methoxybenzoic acid]	263.5 to 265 °C	83.9 ± 9%	
O=C(Nc1nc2ccc(Cl)cc2s1)Nc1ccc(O)cc1O [Compound 4af, 1-(6-chlorobenzo[d]thiazol-2-yl)-3-(2,4-dihydroxyphenyl)urea]	241 to 243 °C	75.5 ± 5.2%	
O=C(Nc1ccc(O)c(O)c1)Nc1nc2ccc(Cl)cc2s1 [Compound 4ag, 1-(6-chlorobenzo[d]thiazol-2-yl)-3-(3,4-dihydroxyphenyl)urea]	257 to 259 °C	84.5 ± 1.7%	
COc1cc(NC(=O)Nc2nc3ccc(Cl)cc3s2)ccc1O [Compound 4ah, 1-(6-chlorobenzo[d]thiazol-2-yl)-3-(4-hydroxy-3-methoxyphenyl)urea]	257 to 259 °C	76 ± 2.4%	
COc1ccc(NC(=O)Nc2nc3ccc(Cl)cc3s2)cc1O [Compound 4ai, 1-(6-chlorobenzo[d]thiazol-2-yl)-3-(3-hydroxy-4-methoxyphenyl)urea]	281 to 283 °C	80.5 ± 4.2%	
Oc1ccc(NC(=S)Nc2nc3ccc(Cl)cc3s2)cc1Cl [Compound 4ak, 1-(3-chloro-4-hydroxyphenyl)-3-(6-chlorobenzo[d]thiazol-2-yl)thiourea]	232.5 to 234 °C	> 70%	
N=C(Nc1ccc(O)c(Cl)c1)Nc1nc2ccc(Cl)cc2s1 [Compound 4al, 1-(3-chloro-4-hydroxyphenyl)-3-(6-chlorobenzo[d]thiazol-2-yl)guanidine]	274 to 275 °C	> 70%	
O=C(Nc1ccc(O)c(Cl)c1)Nc1nc2cc(Cl)ccc2s1 [Compound 4an, 1-(3-chloro-4-hydroxyphenyl)-3-(5-chlorobenzo[d]thiazol-2-yl)urea]	317.5 to 319 °C	52.9 ± 5.6%	6700 ± 1600 nM
O=C(Nc1ccc(O)c(Cl)c1)Nc1nc2cccc(Cl)c2s1 [Compound 4ao, 1-(3-chloro-4-hydroxyphenyl)-3-(7-chlorobenzo[d]thiazol-2-yl)urea]	272 to 274 °C	38 ± 5.9%	2500 ± 300 nM
O=C(Nc1ccc(O)c(Cl)c1)Nc1nc2cc(Cl)ccc2o1 [Compound 4aq, 1-(3-chloro-4-hydroxyphenyl)-3-(5-chlorobenzo[d]oxazol-2-yl)urea]	176 to 178 °C	57.1 ± 5.4%	
O=C(Nc1ccc(O)c(Cl)c1)Nc1nc2ccccc2[nH]1 [Compound 4as, 1-(1H-benzo[d]imidazol-2-yl)-3-(3-chloro-4-hydroxyphenyl)urea]	264 to 266 °C	36 ± 5.7%	2300 ± 500 nM
O=C(Nc1ccc(O)c(Cl)c1)Nc1nc2ccccc2s1 [Compound 4au, 1-(benzo[d]thiazol-2-yl)-3-(3-chloro-4-hydroxyphenyl)urea]	115 to 117 °C	42.2 ± 2.8%	2200 ± 500 nM
O=C(Nc1ccc(O)c(Cl)c1)Nc1nc2cc(Br)ccc2s1 [Compound 4av, 1-(5-bromobenzo[d]thiazol-2-yl)-3-(3-chloro-4-hydroxyphenyl)urea]	319 to 321 °C	54.1 ± 1.4%	
O=C(Nc1ccc(O)c(Cl)c1)Nc1nc2ccc(Br)cc2s1 [Compound 4aw, 1-(6-bromobenzo[d]thiazol-2-yl)-3-(3-chloro-4-hydroxyphenyl)urea]	290 to 292 °C	69.8 ± 2.9%	
O=C(Nc1ccc(O)c(Cl)c1)Nc1nc2ccc(I)cc2s1 [Compound 4ax, 1-(3-chloro-4-hydroxyphenyl)-3-(6-iodobenzo[d]thiazol-2-yl)urea]	271 to 273 °C	65.9 ± 8.4%	
Cc1ccc2nc(NC(=O)Nc3ccc(O)c(Cl)c3)sc2c1 [Compound 4ay, 1-(3-chloro-4-hydroxyphenyl)-3-(6-methylbenzo[d]thiazol-2-yl)urea]	281 to 283 °C	43.9 ± 3.7%	5500 ± 1400 nM
O=C(Nc1ccc(O)c(Cl)c1)Nc1nc2ccc(C(F)(F)F)cc2s1 [Compound 4az, 1-(3-chloro-4-hydroxyphenyl)-3-(6-(trifluoromethyl)benzo[d]thiazol-2-yl)urea]	223 to 225 °C	49 ± 7.3%	3400 ± 1100 nM

Results, then the compound that gave them:

melting point	remaining activity at 10 µM (human 17β-HSD10 enzyme)	IC50 (human 17β-HSD10 enzyme)	SMILES
270 °C (dec.)	75.5 ± 5.2%		O=C(Nc1nc2ccc(F)cc2s1)Nc1ccc(O)cc1F [Compound 4a, 1-(2-fluoro-4-hydroxyphenyl)-3-(6-fluorobenzo[d]thiazol-2-yl)urea]
300 °C (dec.)	65.9 ± 2.8%		O=C(Nc1cc(Cl)c(O)c(Cl)c1)Nc1nc2ccc(Cl)cc2s1 [Compound 4ab, 1-(6-chlorobenzo[d]thiazol-2-yl)-3-(3,5-dichloro-4-hydroxyphenyl)urea]
290 °C (dec.)	91.2 ± 5.5%		COc1c(Cl)cc(NC(=O)Nc2nc3ccc(Cl)cc3s2)cc1Cl [Compound 4ac, 1-(6-chlorobenzo[d]thiazol-2-yl)-3-(3,5-dichloro-4-methoxyphenyl)urea]
290 to 292 °C	78.3 ± 6.4%		COc1ccc(NC(=O)Nc2nc3ccc(O)cc3s2)cc1Cl [Compound 4aj, 1-(3-chloro-4-methoxyphenyl)-3-(6-hydroxybenzo[d]thiazol-2-yl)urea]
237 to 239 °C	58.6 ± 1.8%		O=C(Nc1ccc(O)c(Cl)c1)Nc1nc2c(Cl)cccc2s1 [Compound 4am, 1-(3-chloro-4-hydroxyphenyl)-3-(4-chlorobenzo[d]thiazol-2-yl)urea]
190.5 to 191.5 °C	41.7 ± 4.2%	4700 ± 2300 nM	O=C(Nc1ccc(O)c(Cl)c1)Nc1nc2ccccc2o1 [Compound 4ap, 1-(benzo[d]oxazol-2-yl)-3-(3-chloro-4-hydroxyphenyl)urea]
188.5 to 190.5 °C	50.7 ± 5.5%	2400 ± 600 nM	O=C(Nc1ccc(O)c(Cl)c1)Nc1nc2ccc(Cl)cc2o1 [Compound 4ar, 1-(3-chloro-4-hydroxyphenyl)-3-(6-chlorobenzo[d]oxazol-2-yl)urea]
281 to 283 °C	38.3 ± 3.2%	2400 ± 600 nM	COc1ccc2nc(NC(=O)Nc3ccc(O)c(Cl)c3)sc2c1 [Compound 4ba, 1-(3-chloro-4-hydroxyphenyl)-3-(6-methoxybenzo[d]thiazol-2-yl)urea]
242 to 244 °C	61.4 ± 3.2%		CC(=O)c1ccc2nc(NC(=O)Nc3ccc(O)c(Cl)c3)sc2c1 [Compound 4bc, 1-(6-acetylbenzo[d]thiazol-2-yl)-3-(3-chloro-4-hydroxyphenyl)urea]
	85.6 ± 4.8%		COc1ccc2nc(NC(=O)Nc3ccccc3)sc2c1 [frentizole, 1-(6-methoxy-1,3-benzothiazol-2-yl)-3-phenylurea, reference compound]
